PubChem BioAssay AID1963983 (Molecular Pharmacology Branch, DTP, NCI, 2024)

Test system: 186277-243-T-J2-PDC multi-cell spheroid viability
Test: Anticancer human tumor 186277-243-T-J2-PDC patient-derived colon adenocarcinoma cell line growth inhibition [PI3K]
Conditions: for IC50: curve of first compound; for viability, T/C: stronger effect = lower value
How it was run: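 High-throughput combination screen: PI3K inhibitors crossed with targeted small molecules on complex spheroids of tumor cells, HUVEC and MSCs at 37 degrees C, 5% CO2. Top concentration was at or near clinical Cmax (otherwise 10 microM), with half-log decrements.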
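Further: spheroids exposed to compounds for seven days before viability reading.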
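Wherever viability, T/C is given: 100% = DMSO vehicle control viability.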

With CCN1CCN(Cc2ccc(Nc3ncc(F)c(-c4cc(F)c5nc(C)n(C(C)C)c5c4)n3)nc2)CC1 + CC(Nc1ccc2c(c1)OCCn1cc(N3C(=O)OCC3C(F)F)nc1-2)C(N)=O the IC50 (second compound 0.00316 µM) was > 1000 nM, the IC50 (second compound 0.01 µM) was > 1000 nM and the IC50 (second compound 0.0316 µM) was > 1000 nM. The IC50 (second compound 0.1 µM) was > 1000 nM, the IC50 (second compound 0.316 µM) was 40.3 nM and the IC50 (second compound 1 µM) was < 3.16 nM. For the same compound, the viability, T/C (second compound 0.00316 µM, first compound 0.00316 µM) was 99.4%, the viability, T/C (second compound 0.00316 µM, first compound 0.01 µM) was 94.3% and the viability, T/C (second compound 0.00316 µM, first compound 0.0316 µM) was 102%. It also gave a viability, T/C (second compound 0.00316 µM, first compound 0.1 µM) of 143%, a viability, T/C (second compound 0.00316 µM, first compound 0.316 µM) of 165% and a viability, T/C (second compound 0.00316 µM, first compound 1 µM) of 128%. The viability, T/C (second compound 0.01 µM, first compound 0.00316 µM) was 124%, the viability, T/C (second compound 0.01 µM, first compound 0.01 µM) was 85% and the viability, T/C (second compound 0.01 µM, first compound 0.0316 µM) was 106%. For the same compound, the viability, T/C (second compound 0.01 µM, first compound 0.1 µM) was 132%, the viability, T/C (second compound 0.01 µM, first compound 0.316 µM) was 142% and the viability, T/C (second compound 0.01 µM, first compound 1 µM) was 133%. For the same compound, the viability, T/C (second compound 0.0316 µM, first compound 0.00316 µM) was 98.9%, the viability, T/C (second compound 0.0316 µM, first compound 0.01 µM) was 93.3% and the viability, T/C (second compound 0.0316 µM, first compound 0.0316 µM) was 107%. It also gave a viability, T/C (second compound 0.0316 µM, first compound 0.1 µM) of 113%, a viability, T/C (second compound 0.0316 µM, first compound 0.316 µM) of 124% and a viability, T/C (second compound 0.0316 µM, first compound 1 µM) of 103%. It also gave a viability, T/C (second compound 0.1 µM, first compound 0.00316 µM) of 105%, a viability, T/C (second compound 0.1 µM, first compound 0.01 µM) of 95.1% and a viability, T/C (second compound 0.1 µM, first compound 0.0316 µM) of 83%. The viability, T/C (second compound 0.1 µM, first compound 0.1 µM) was 81.8%, the viability, T/C (second compound 0.1 µM, first compound 0.316 µM) was 75.9% and the viability, T/C (second compound 0.1 µM, first compound 1 µM) was 62.5%. For the same compound, the viability, T/C (second compound 0.316 µM, first compound 0.00316 µM) was 67.6%, the viability, T/C (second compound 0.316 µM, first compound 0.01 µM) was 74.8% and the viability, T/C (second compound 0.316 µM, first compound 0.0316 µM) was 52.5%. The viability, T/C (second compound 0.316 µM, first compound 0.1 µM) was 42.8%, the viability, T/C (second compound 0.316 µM, first compound 0.316 µM) was 42.5% and the viability, T/C (second compound 0.316 µM, first compound 1 µM) was 36.2%. It also gave a viability, T/C (second compound 1 µM, first compound 0.00316 µM) of 37.3%, a viability, T/C (second compound 1 µM, first compound 0.01 µM) of 37.8% and a viability, T/C (second compound 1 µM, first compound 0.0316 µM) of 28.3%. For the same compound, the viability, T/C (second compound 1 µM, first compound 0.1 µM) was 28%, the viability, T/C (second compound 1 µM, first compound 0.316 µM) was 31% and the viability, T/C (second compound 1 µM, first compound 1 µM) was 24.5%.
